From patent US9180175B2, “Methods of use for a natural Thomsen-Friedenreich disaccharide compound” (UNIVERSITY OF MARYLAND, BALTIMORE, priority 2011, dated 2015)
pIC50, pKd: −log10 of the molar value. Read-outs that look alike come from different tables or passages of the source. One block for each compound: values may come before it.

Experiments:
[1] = molecular target: gal9N (N-terminal of gal9) (UniProt O00182); assay: Solid phase binding-inhibition assay: gal9N binding to asialofetuin; settings: read-out: I50 value
gal4 = molecular target: T1, gal4 (Homo sapiens, UniProt P56470); assay: Solid phase binding-inhibition assay: gal4 binding to asialofetuin; settings: read-out: I50 value
T1 sequence (P56470 1-323): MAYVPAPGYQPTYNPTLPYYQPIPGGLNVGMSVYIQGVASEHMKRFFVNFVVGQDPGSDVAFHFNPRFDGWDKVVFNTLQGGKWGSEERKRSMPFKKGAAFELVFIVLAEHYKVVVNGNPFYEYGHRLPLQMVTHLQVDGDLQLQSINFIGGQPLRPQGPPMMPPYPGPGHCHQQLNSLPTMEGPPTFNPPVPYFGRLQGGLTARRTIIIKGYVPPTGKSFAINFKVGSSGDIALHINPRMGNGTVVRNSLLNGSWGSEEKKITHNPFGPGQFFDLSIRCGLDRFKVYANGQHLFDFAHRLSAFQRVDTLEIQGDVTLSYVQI

human CD8+ T cells = assay: Gal3-mediated apoptosis of human CD8+ T cells (annexin V); type: cell-based
Description: (§1) Jurkat cells were used for gal3-mediated apoptosis at various concentration of gal3. To investigate gal3-mediated apoptosis of human CD8^+ cells, peripheral blood mononuclear cells (PBMCs) were isolated from chronic leukemia patients using Ficoll-paque density gradient method (39) followed by negative selection of CD8^+ cells with a cocktail of antibodies using a kit (BD Biosciences, MD). The presence of CD8^+ cells in the purified fraction was confirmed by staining cells with anti-CD8 antibody.

[2] = system: activated pmel T cells on B16 melanoma cells; assay: B16 melanoma cell-associated apoptosis of activated pmel T cells; type: cell-based, mouse; settings: B16 monolayer about 24 h; untreated about 53%; TFD100 3.5 nM, lactose 50 μM
Experimental: To investigate if tumor-associated gal3 can induce tumor specific CD8 T cells, we used B16 melanoma-specific transgenic D90.1 CD8 T cells (pmel T cells) (40). After harvesting T cells from mouse spleen, cells were activated with a peptide (40), mixed with a monolayer of B16 melanoma cells and apoptosis was measured by Annexin V binding after gating with anti-CD8 antibodies.

MOLT-4 cells = assay: Gal3-mediated apoptosis of MOLT-4 cells (annexin V); type: cell-based, human
Jurkat cells = assay: Gal3-mediated apoptosis of Jurkat cells; type: cell-based, human
Description: as §1

gal3 [3] = molecular target: T2, gal3 (Homo sapiens, UniProt P17931); assay: Surface plasmon resonance (Biacore) kinetics and affinity for gal3; type: binding; settings: SPR, biotinylated gal3 on chip
T2 construct: made in house
T2 sequence (P17931 whole entry): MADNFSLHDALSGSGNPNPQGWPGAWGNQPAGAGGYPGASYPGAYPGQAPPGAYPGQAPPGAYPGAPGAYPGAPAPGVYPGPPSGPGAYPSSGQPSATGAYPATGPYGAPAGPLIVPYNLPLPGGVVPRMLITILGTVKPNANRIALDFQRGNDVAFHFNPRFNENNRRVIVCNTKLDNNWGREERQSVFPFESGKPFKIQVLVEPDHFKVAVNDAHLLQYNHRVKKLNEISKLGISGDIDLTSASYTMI
Experimental: The binding kinetics and affinity of a few carbohydrates for gal3 were measured in Surface Plasmon Resonance (SPR)-based binding assays using a Biacore™ T200 instrument (GE Healthcare). Biotinylated gal3 was attached to Biacore Sensor Chip SA (GE Healthcare) according to the instructions. For this purpose, biotinlyated gal3 was diluted into HBS-EP+ (GE Heathcare) to a concentration of 1 μg/mL and captured onto the streptavidin surface to a final level of 1750 RU. A reference surface was prepared with biotin captured onto the streptavidin. […] The binding response of small carbohydrate ligands were measured in Resonance units (RU) in real time at 10 HZ. These carbohydrates were injected for 30 seconds at 50 μL/min, and 30 seconds of dissociation data were collected. […] Raw sensorgram data were reference subtracted and blank subtracted prior to kinetic and affinity analysis. Biacore™ T200 Evaluation software was used for Steady-state affinity analysis and kinetic analysis.

gal3 [4] = molecular target: T2, gal3; assay: Solid phase binding-inhibition assay: gal3 binding to asialofetuin; settings: for IC50: read-out: I50 value (converted)
Experimental: Briefly, asialofetuin (0.5 μg/100 μl/well) in 0.1 M Na2CO3/0.02% NaN3 (pH 9.6) was adsorbed onto the wells of microtiter plates (Immulon; Dynatech Laboratories, Chantilly, Va.) at 37° C. for 3 h, and the bound glycoprotein was fixed with 2% formaldehyde in phosphate-buffered saline (PBS, 10 mM phosphate, 140 mM NaCl, pH 7.5) at 37° C. for 30 min. The plates were washed three times with PBS (azide-free)/0.05% Tween 20, and incubated with the gal3-biotin conjugate (10 ng/100 μl/well for binding assays) or with preincubated mixture of equal volume of conjugate and varying concentrations of test ligands (for binding-inhibition assays). After incubation for 1 h at 4° C., the plates were washed with ice-cold azide-free PBS-Tween 20, and the bound conjugate was allowed to interact with peroxidase labeled streptavidin (0.05 μg/100 μl well) in azide-free PBS-Tween for 1 h at 4° C. The plate was washed with ice-cold azide free PBS-Tween and the bound peroxidase activity was assayed with peroxidase substrate diammonium 2,2′-azinobis(3-ethylbenzothiazoline-6-sulfonate) (KPL, Rockville, Md.) (37). […] After incubation for 2 h on ice, the mix was dialyzed with PBS and purified by affinity chromatography on lactosyl-Sepharose (37). The purified gal3-biotin conjugate was dialyzed with PBS and stored in 1% BSA-50% glycerol at −20° C. until further use. […] O-Glycosidase treatment removes TF-disaccharide from protein (cleaves GalNAc-Ser/Thr linkage).

HUVEC = assay: In vitro angiogenesis (tube formation) of HUVEC; type: cell-based, human; settings: recombinant gal3 5 μM, number of branching
Experimental: After 5 h, the microvessel formation was analyzed under phase contrast microscope at the 10× magnification. For quantitation of tube formation, the number of branching was counted in six areas (each […]) of each well and an average value was taken.

pmel T cells = assay: Recombinant gal3-mediated apoptosis of tumor-specific CD8+ (pmel) T cells; type: cell-based, mouse

pIC50 [1]: 4.00 | pIC50 (gal4): 2.00
Compound: OC[C@H]1O[C@@H](O[C@H]2[C@H](O)[C@@H](O)C(O)O[C@@H]2CO)[C@H](O)[C@@H](O)[C@H]1O (some centres unmarked) [Lactose]
inhibition at 50 µM (human CD8+ T cells; Homo sapiens, T-cell): ~67% | apoptosis of T cells reduced to [2]: 39% | inhibition at 50 µM (MOLT-4 cells; Homo sapiens, MOLT-4): ~20% | inhibition at 50 µM (Jurkat cells; Homo sapiens, Jurkat): ~30%

pKd (gal3 [3]): 4.60
Compound: CC(=O)N[C@H]1C(O)O[C@H](CO)[C@@H](O[C@@H]2O[C@H](CO)[C@H](O)[C@H](O)[C@H]2O)[C@@H]1O (some centres unmarked) [N-acetyllactosamine]

RIA, relative inhibitory activity compared to lactose (taken as 1) (gal3 [4]; from I50 in μg/ml, Table 1): 0.47 | IC50 (gal3 [4]; gal3 binding to asialofetuin): 200 µM | IC50 (gal3 [4]; inhibition of gal3 binding to asialofetuin, Table 1): 151 µM | pKd (gal3 [3]): 3.20
Compound: CC(=O)NC1C(O)OC(CO)C(O)C1OC1OC(CO)C(O)C(O)C1O (centres unmarked) [TFD, Galβ1,3GalNAc]

Compound: gal3: purified recombinant galectin-3, used as inducer of angiogenesis and T cell apoptosis
enhancement of tube formation (HUVEC): ~25% | cells death (human CD8+ T cells; gal3 5 μM, flow cytometry): ~54% | cell death of non-activated CD8+ T cells (pmel T cells; gal3 up to 15 μM, same as cells alone): ~22% | apoptosis of activated CD8+ T cells (pmel T cells; recombinant gal3 5 μM, CD8 alone ~61%): ~76% | cells undergoing apoptosis (MOLT-4 cells; gal3 5 μM, annexin V): ~50% | gal3-mediated apoptosis (Jurkat cells; gal3 5 μM): ~34%
